# The source made the active and inactive calls. How the calls were made is not given here.
# Test system: CCRIS mutagenicity, Ames/micronucleus/aberration tests
# Experiment: CCRIS mutagenicity studies
compound,measurement,setting,value
COc1cccc2c1C(=O)c1c(O)c3c(c(O)c1C2=O)C[C@@](O)(C(=O)CO)C[C@@H]3O[C@H]1C[C@H](N)[C@H](O)[C@H](C)O1,mutagenic call,"End Point: IN VITRO CHROMOSOMAL ABERRATIONS, Test System: CHO-WBL CELLS, Metabolic Activation: NONE",active; positive
same,mutagenic call,"End Point: IN VITRO CHROMOSOMAL ABERRATIONS, Test System: HUMAN (MALE) PERIPHERAL LYMPHOCYTES, Metabolic Activation: NONE, Method: FISH (METAPHASE)",active; positive (structural changes)
same,mutagenic call,"End Point: IN VIVO CHROMOSOMAL ABERRATIONS, Test System: BONE MARROW CELLS, Species: RAT, Strain/Sex: WISTAR/MALE, FEMALE, Route: IP",active; positive (structural changes; abnormal metaphase)
same,mutagenic call,"End Point: IN VIVO CHROMOSOMAL ABERRATIONS, Test System: BONE MARROW CELLS, Species: RAT, Strain/Sex: WISTAR, Route: IP",active; positive
same,mutagenic call,"End Point: IN VIVO CHROMOSOMAL ABERRATIONS, Test System: BONE MARROW, Species: RAT, Strain/Sex: WISTAR/MALE, FEMALE, Route: INTRAPERITONEAL",active; positive (structural changes)
same,mutagenic call,"End Point: IN VIVO CHROMOSOMAL ABERRATIONS, Test System: BONE MARROW, Species: RAT, Strain/Sex: WISTAR, Route: INTRAPERITONEAL (TEST MATERIAL SOLVENT: WATER)",active; positive (structural changes)
same,mutagenic call,"End Point: In vitro chromosomal aberrations, Test System: Chinese hamster ovary (CHO) cells, Metabolic Activation: None",active; positive (structural changes)
same,mutagenic call,"End Point: In vitro chromosomal aberrations, Test System: Human (female) lymphocytes",active; positive. fucus vesiculosus extract (84696-13-9) at 0.25-1.0 mg/ml was antimutag
same,mutagenic call,"End Point: In vitro chromosomal aberrations, Test System: Human lymphocytes, Metabolic Activation: None",active; positive (structural changes). significantly reduced by selenomethionine treatme
same,mutagenic call,"End Point: In vitro micronucleus, Test System: Human peripheral blood lymphocytes, Metabolic Activation: None",active; positive
same,mutagenic call,"End Point: In vivo chromosomal aberrations, Test System: Bone marrow cells, Species: Rat, Strain/Sex: Wistar/Male and female, Route: Intraperitoneal",active; positive (structural changes); administration of vitamin c or vitamin e decrease
same,mutagenic call,"End Point: In vivo chromosomal aberrations, Test System: Bone marrow cells, Species: Rat, Strain/Sex: Wistar/Male and female, Route: Oral",active; positive (structural changes)
same,mutagenic call,"End Point: In vivo chromosomal aberrations, Test System: Bone marrow, Species: Rat, Strain/Sex: Wistar/Male and female, Route: Intraperitoneal (Test material solvent: either distilled water or DMSO solution)",active; positive (structural changes). prior treatment with propolis extract reduced the
same,mutagenic call,"End Point: In vivo micronucleus, Test System: Bone marrow erythrocytes, Species: Mouse, Strain/Sex: Swiss albino/Male, Route: Oral",inactive; negative
same,mutagenic call,"Test System: AMES SALMONELLA TYPHIMURIUM, Strain/Indicator: GW257, Metabolic Activation: NONE, Method: STANDARD PLATE",active; positive
same,mutagenic call,"Test System: AMES SALMONELLA TYPHIMURIUM, Strain/Indicator: TA97, Metabolic Activation: NONE, Method: STANDARD PLATE",inactive; negative
same,mutagenic call,"Test System: AMES SALMONELLA TYPHIMURIUM, Strain/Indicator: TA97, Metabolic Activation: RAT, LIVER, S-9, PHENOBARBITAL AND ALPHA-NAPHTHOFLAVONE, Method: STANDARD PLATE",inactive; negative
same,mutagenic call,"Test System: AMES SALMONELLA TYPHIMURIUM, Strain/Indicator: TA97A, Metabolic Activation: NONE, Method: STANDARD PLATE",inactive; negative
same,mutagenic call,"Test System: AMES SALMONELLA TYPHIMURIUM, Strain/Indicator: TA97A, Metabolic Activation: RAT, LIVER, S-9, AROCLOR 1254, Method: STANDARD PLATE",inactive; negative
same,mutagenic call,"Test System: AMES SALMONELLA TYPHIMURIUM, Strain/Indicator: TA98, Metabolic Activation: NONE, Method: PREINCUBATION",active; positive
same,mutagenic call,"Test System: AMES SALMONELLA TYPHIMURIUM, Strain/Indicator: TA98, Metabolic Activation: RAT, LIVER, S-9, AROCLOR 1254, Method: STANDARD PLATE",active; positive
same,mutagenic call,"Test System: AMES SALMONELLA TYPHIMURIUM, Strain/Indicator: TA98, Metabolic Activation: RAT, LIVER, S-9, KC500 OR PHENOBARBITAL, Method: LIQUID SUSPENSION",active; positive
same,mutagenic call,"Test System: AMES SALMONELLA TYPHIMURIUM, Strain/Indicator: TA98, Metabolic Activation: RAT, LIVER, S-9, PHENOBARBITAL AND ALPHA-NAPHTHOFLAVONE, Method: STANDARD PLATE",active; positive
same,mutagenic call,"Test System: AMES SALMONELLA TYPHIMURIUM, Strain/Indicator: TA98, Metabolic Activation: S-9, Method: PREINCUBATION",active; positive
same,mutagenic call,"Test System: AMES SALMONELLA TYPHIMURIUM, Strain/Indicator: TA100, Metabolic Activation: NONE, Method: PREINCUBATION",inactive; negative
same,mutagenic call,"Test System: AMES SALMONELLA TYPHIMURIUM, Strain/Indicator: TA100, Metabolic Activation: RAT, LIVER, S-9, AROCLOR 1254, Method: STANDARD PLATE",inactive; negative
same,mutagenic call,"Test System: AMES SALMONELLA TYPHIMURIUM, Strain/Indicator: TA100, Metabolic Activation: RAT, LIVER, S-9, PHENOBARBITAL AND ALPHA-NAPHTHOFLAVONE, Method: STANDARD PLATE",active; positive
same,mutagenic call,"Test System: AMES SALMONELLA TYPHIMURIUM, Strain/Indicator: TA100, Metabolic Activation: S-9, Method: PREINCUBATION",active; positive
same,mutagenic call,"Test System: AMES SALMONELLA TYPHIMURIUM, Strain/Indicator: TA102, Metabolic Activation: NONE, Method: STANDARD PLATE",active; positive
same,mutagenic call,"Test System: AMES SALMONELLA TYPHIMURIUM, Strain/Indicator: TA102, Metabolic Activation: RAT, LIVER, S-9, AROCLOR 1254, Method: STANDARD PLATE",active; positive
same,mutagenic call,"Test System: AMES SALMONELLA TYPHIMURIUM, Strain/Indicator: TA1535, Metabolic Activation: NONE, Method: STANDARD PLATE",inactive; negative
same,mutagenic call,"Test System: AMES SALMONELLA TYPHIMURIUM, Strain/Indicator: TA1535, Metabolic Activation: RAT, LIVER, S-9, PHENOBARBITAL AND ALPHA-NAPHTHOFLAVONE, Method: STANDARD PLATE",inactive; negative
same,mutagenic call,"Test System: AMES SALMONELLA TYPHIMURIUM, Strain/Indicator: TA1537, Metabolic Activation: NONE, Method: STANDARD PLATE",inactive; negative
same,mutagenic call,"Test System: AMES SALMONELLA TYPHIMURIUM, Strain/Indicator: TA1978/PKM101, Metabolic Activation: NONE, Method: STANDARD PLATE",active; positive
same,mutagenic call,"Test System: AMES SALMONELLA TYPHIMURIUM, Strain/Indicator: TA1978, Metabolic Activation: NONE, Method: STANDARD PLATE",inactive; negative
same,mutagenic call,"Test System: AMES SALMONELLA TYPHIMURIUM, Strain/Indicator: TA2637, Metabolic Activation: NONE, Method: STANDARD PLATE",active; positive
same,mutagenic call,"Test System: CHINESE HAMSTER OVARY, Strain/Indicator: CHO-AS52 (GPT), Metabolic Activation: NONE",active; positive
same,mutagenic call,"Test System: CHINESE HAMSTER OVARY, Strain/Indicator: CHO-K1-BH4 (HPRT), Metabolic Activation: NONE",active; positive
same,mutagenic call,"Test System: CHINESE HAMSTER V-79, Strain/Indicator: V-79 (HGPRT)/6-THIOGUANINE, Metabolic Activation: NONE",active; positive
same,mutagenic call,"Test System: CHINESE HAMSTER V-79, Strain/Indicator: V-79-MZ (HPRT)/6-THIOGUANINE, Metabolic Activation: NONE",active; positive
same,mutagenic call,"Test System: CHINESE HAMSTER V-79, Strain/Indicator: V-79/6-THIOGUANINE, Metabolic Activation: RAT, LIVER, HEPATOCYTES, Method: SUSPENSION/PLATE",active; positive
same,mutagenic call,"Test System: CHINESE HAMSTER V-79, Strain/Indicator: V-79/6-THIOGUANINE, Metabolic Activation: RAT, LIVER, HOMOGENATE, Method: SUSPENSION/PLATE",inactive; negative
same,mutagenic call,"Test System: CHINESE HAMSTER V-79, Strain/Indicator: V-79/8-AZAGUANINE, Metabolic Activation: NONE, Method: STANDARD PLATE",active; positive
same,mutagenic call,"Test System: CHINESE HAMSTER V-E5, Strain/Indicator: V-E5 (HPRT)/6-THIOGUANINE, Metabolic Activation: NONE",active; positive
same,mutagenic call,"Test System: E. COLI, Strain/Indicator: WP2 (HCR), Metabolic Activation: NONE, Method: STANDARD PLATE",inactive; negative
same,mutagenic call,"Test System: MOUSE LYMPHOMA, Strain/Indicator: L5178Y (TK+/TK-), Metabolic Activation: NONE, Method: SUSPENSION/PLATE",active; positive
